Measured values from US9249102B2 (priority 2012, dated 2016).
Where two headings read alike, the source gives them in different places.

What was measured:
Haemonchus contortus = assay: Method A: Haemonchus contortus L1 larvae, microtitre plate screen; settings: 96 h, read-out: motility inhibition
[1] = tested on: microfilaria of Dirofilaria immitis; assay: Method F: microfilaria of Dirofilaria immitis, survival at 24 hours
[2] = survival of microfilaria at 24 hours

O=C(NCCOc1ccc(Nc2ccc([N+](=O)[O-])c(C(F)(F)F)c2)cc1)C(=O)NCC1Cc2cc(C(F)(F)F)ccc2O1 (centres unmarked) [Compound 227, N^1-(2-(4-(4-nitro-3-(trifluoromethyl)phenylamino)phenoxy)ethyl)-N^2-((5-(trifluoromethyl)-2,3-dihydrobenzofuran-2-yl)methyl)ethanediamide]
inhibition at 5 µg/mL (Haemonchus contortus): ≥ 90% | EC50 [1, 2]: < 1 mg/L

O=C(CO[C@H]1CC[C@H](Nc2ccc([N+](=O)[O-])c(C(F)(F)F)c2)CC1)N1CCN(c2ccc3cc(C(F)(F)F)ccc3c2)CC1 [Compound 232, 2-[4-(4-nitro-3-trifluoromethyl-phenylamino)-cyclohexyloxy]-1-[4-(6-trifluoromethyl-naphthalen-2-yl)-piperazin-1-yl]-ethanone]
inhibition at 5 µg/mL (Haemonchus contortus): ≥ 90% | EC50 [1, 2]: < 5 mg/L

O=C(CO[C@H]1CC[C@H](Nc2ccc([N+](=O)[O-])c(C(F)(F)F)c2)CC1)N1CCN(c2ccc3cc(Cl)ccc3c2)CC1 [Compound 233, 1-[4-(6-chloro-2-naphthyl)piperazin-1-yl]-2-[4-[4-nitro-3-(trifluoromethyl)anilino]cyclohexoxy]ethanone]
inhibition at 5 µg/mL (Haemonchus contortus): ≥ 90% | EC50 [1, 2]: < 1 mg/L

O=C(CO[C@H]1CC[C@H](Nc2ccc([N+](=O)[O-])c(C(F)(F)F)c2)CC1)N1CCN(c2cc3cc(F)ccc3s2)CC1 [Compound 236, 1-(4-(5-fluorobenzo[b]thiophen-2-yl)piperazin-1-yl)-2-((4-((4-nitro-3-(trifluoromethyl)phenyl)amino)cyclohexyl)oxy)ethanone]
inhibition at 5 µg/mL (Haemonchus contortus): ≥ 90% | EC50 [1, 2]: < 1 mg/L

CN(c1ccc([N+](=O)[O-])c(C(F)(F)F)c1)[C@H]1CC[C@H](OCC(=O)N2CCN(c3ccc4cc(F)ccc4n3)CC2)CC1 [Compound 247, 1-(4-(6-fluoroquinolin-2-yl)piperazin-1-yl)-2-(4-(methyl(4-nitro-3-(trifluoromethyl)phenyl)amino)cyclohexyloxy)ethanone]
inhibition at 5 µg/mL (Haemonchus contortus): ≥ 90% | EC50 [1, 2]: < 1 mg/L

CN(c1ccc([N+](=O)[O-])c(C(F)(F)F)c1)[C@H]1CC[C@H](OCC(=O)N2CCN(c3ccc4cc(F)ccc4c3)CC2)CC1 [Compound 248, 1-(4-(6-fluoronaphthalen-2-yl)piperazin-1-yl)-2-(4-(methyl(4-nitro-3-(trifluoromethyl)phenyl)amino)cyclohexyloxy)ethanone]
inhibition at 5 µg/mL (Haemonchus contortus): ≥ 90% | EC50 [1]: < 0.1 mg/L

CC(O[C@H]1CC[C@H](Nc2ccc([N+](=O)[O-])c(C(F)(F)F)c2)CC1)C(=O)N1CCN(c2ccc3cc(C(F)(F)F)ccc3n2)CC1 (some centres unmarked) [Compound 249, 2-[[-4-[[4-nitro-3-(trifluoromethyl)phenyl]amino]cyclohexyl]oxy]-1-[4-[6-(trifluoromethyl)quinolin-2-yl]piperazin-1-yl]propan-1-one]
inhibition at 5 µg/mL (Haemonchus contortus): ≥ 90% | EC50 [1]: < 1 mg/L

CC(O[C@H]1CC[C@H](Nc2ccc([N+](=O)[O-])c(C(F)(F)F)c2)CC1)C(=O)N1CCN(c2ccc3cc(Cl)ccc3n2)CC1 (some centres unmarked) [Compound 250, 1-[4-(6-chloroquinolin-2-yl)piperazin-1-yl]-2-[[4-[[4-nitro-3-(trifluoromethyl)phenyl]amino]cyclohexyl]oxy]propan-1-one]
inhibition at 5 µg/mL (Haemonchus contortus): ≥ 90% | EC50 [1, 2]: < 1 mg/L

CC(O[C@H]1CC[C@H](Nc2ccc([N+](=O)[O-])c(C(F)(F)F)c2)CC1)C(=O)N1CCN(c2ccc3cc(F)ccc3n2)CC1 (some centres unmarked) [Compound 251, 1-[4-(6-fluoroquinolin-2-yl)piperazin-1-yl]-2-[[4-[[4-nitro-3-(trifluoromethyl)phenyl]amino]cyclohexyl]oxy]propan-1-one]
inhibition at 5 µg/mL (Haemonchus contortus): ≥ 90% | EC50 [1, 2]: < 1 mg/L

CC(O[C@H]1CC[C@H](Nc2ccc([N+](=O)[O-])c(C(F)(F)F)c2)CC1)C(=O)N1CCN(c2ccc3cc(F)ccc3c2)CC1 (some centres unmarked) [Compound 252, 1-(4-(6-fluoronaphthalen-2-yl)piperazin-1-yl)-2-(−4-(4-nitro-3-(trifluoromethyl)phenylamino)cyclohexyloxy)propan-1-one]
inhibition at 5 µg/mL (Haemonchus contortus): ≥ 90% | EC50 [1, 2]: < 1 mg/L
